The target of test [1] is T1, BuChE (Homo sapiens, UniProt P06276).
T1 construct: purchased Aldrich
The test can be described thus: biochemical. The note with it: mean ± SD, three independent experiments; read-out: BuChEI IC50. Here is the method: (§1) All enzymes and reagents required for the assay were obtained from Aldrich. […] Each well contained 50 µL potassium phosphate buffer (KH2PO4/ K2HPO4, 0.1 M, pH 8), 25 µL sample solution, and 25 µL enzyme (final concentration 0.22 U/mL in buffer). Control experiments were also performed under the same conditions without enzyme. After incubation at room temperature for 15 min, 125 µL DTNB (3 mM in buffer) was added and the characterization of enzymatic reaction was spectrometrically performed at 405 nm followed by the addition of substrate (ATCI 3 mM in water) after 5–10 min. The IC50 values were determined graphically from inhibition curves (log inhibitor concentration vs. percent of inhibition). Also, the same method was used for the BuChE inhibition assay.

For test [2], the target named is T2, AChE (Electrophorus electricus, UniProt O42275).
T2 construct: purchased Aldrich
As to the kind of experiment: biochemical. The settings on record: mean ± SD, three independent experiments; read-out: AChEI IC50. Here is the method: as §1

The target of test [3] is AChE-induced Aβ1-40 peptide aggregation (Homo sapiens, UniProt P05067). The test can be described thus: biochemical. The settings on record: read-out: % Inhibition AChE-induced Aβ aggregation. On the procedure:
(§2) Inhibition of Aβ1-42 self-aggregation was measured by ThT fluorescence assay. The details of the method were reported in our previous study. To study Aβ42 aggregation inhibition, a reported method, based on the fluorescence emission of ThT was followed. Briefly, the mixtures of Aβ1-40 peptide (Bachem company, Switzerland) and AChE (Sigma, Electrophorus electricus), in the presence or absence of the test inhibitor were incubated for 24 h at room temperature.

The target in the next test is Aβ1-42 (Homo sapiens, UniProt P05067). The test can be described thus: biochemical. The note with it: read-out: % Inhibition self-induced Aβ1–42 aggregation. On the procedure:
as §2

For test [4], the target named is T1, BuChE. On the set-up: method as in PMID 29421707, PMID 27914694, PMID 31327094, doi:10.1007/s00044-018-2187-8, PMID 25531792. The note with it: literature compounds of Fig. 1; read-out: BuChEI, IC50; cited from earlier work.
Test [5] concerns the target T2, AChE. On the set-up: method as in PMID 29421707, PMID 27914694, PMID 25531792. The settings on record: literature compounds of Fig. 1; read-out: AChEI, IC50; cited from earlier work.
The subject of test [6] is Aβ. Details: method as in PMID 29407958, PMID 29763808, PMID 32131034. The settings on record: at 25 μM; cited from earlier work.
Test [7] has as its system Aβ. Details: method as in PMID 29407958, PMID 29763808, PMID 32131034. The settings on record: at 100 μM; cited from earlier work.
For another test, the system named is neuronal cell line. Details: method as in PMID 29107423. The settings on record: cited from earlier work.

Where two headings read alike, the source gives them in different places.

T1 sequence (P06276 29-602): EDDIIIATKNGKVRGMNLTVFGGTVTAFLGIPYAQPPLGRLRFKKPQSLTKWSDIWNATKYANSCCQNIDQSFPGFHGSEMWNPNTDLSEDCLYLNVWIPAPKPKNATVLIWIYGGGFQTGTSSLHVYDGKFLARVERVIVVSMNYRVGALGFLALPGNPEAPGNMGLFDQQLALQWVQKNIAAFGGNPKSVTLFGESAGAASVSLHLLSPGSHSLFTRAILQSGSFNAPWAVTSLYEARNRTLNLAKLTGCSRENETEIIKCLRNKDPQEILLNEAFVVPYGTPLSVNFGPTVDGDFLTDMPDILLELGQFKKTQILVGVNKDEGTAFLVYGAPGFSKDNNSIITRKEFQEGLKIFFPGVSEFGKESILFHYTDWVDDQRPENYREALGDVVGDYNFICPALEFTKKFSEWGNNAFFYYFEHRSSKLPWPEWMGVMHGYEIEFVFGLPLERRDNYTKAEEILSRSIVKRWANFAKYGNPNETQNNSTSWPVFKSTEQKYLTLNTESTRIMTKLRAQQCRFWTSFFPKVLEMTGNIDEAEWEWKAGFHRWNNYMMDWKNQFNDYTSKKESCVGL
T2 sequence (O42275 24-633): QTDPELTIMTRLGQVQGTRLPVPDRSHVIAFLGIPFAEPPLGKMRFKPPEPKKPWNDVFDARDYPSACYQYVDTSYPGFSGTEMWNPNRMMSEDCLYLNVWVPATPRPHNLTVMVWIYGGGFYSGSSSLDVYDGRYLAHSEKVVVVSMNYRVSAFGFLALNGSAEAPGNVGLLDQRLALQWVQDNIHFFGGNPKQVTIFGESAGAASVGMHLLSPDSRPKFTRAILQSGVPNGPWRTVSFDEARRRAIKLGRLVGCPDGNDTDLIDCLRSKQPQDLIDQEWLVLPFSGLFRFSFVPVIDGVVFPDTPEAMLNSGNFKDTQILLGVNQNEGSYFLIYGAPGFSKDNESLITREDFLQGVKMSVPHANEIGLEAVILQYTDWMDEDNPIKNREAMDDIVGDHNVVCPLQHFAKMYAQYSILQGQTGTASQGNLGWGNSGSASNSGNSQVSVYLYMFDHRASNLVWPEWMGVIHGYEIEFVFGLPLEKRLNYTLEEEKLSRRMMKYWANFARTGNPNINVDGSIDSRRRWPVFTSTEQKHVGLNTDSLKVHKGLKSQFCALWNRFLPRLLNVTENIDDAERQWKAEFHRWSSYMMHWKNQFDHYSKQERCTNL
Sequence of AChE-induced Aβ1-40 peptide aggregation (P05067 672-711): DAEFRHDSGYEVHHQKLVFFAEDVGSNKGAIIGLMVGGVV
Sequence of Aβ1-42 (P05067 672-713 limits assumed): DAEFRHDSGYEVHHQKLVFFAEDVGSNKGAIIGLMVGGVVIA

For the compound `CN(C)/C=C/C(=O)c1cc2ccc(OCc3cn(Cc4ccccc4)nn3)cc2oc1=O` [Compound 10a, (E)-7-((1-Benzyl-1H-1,2,3-triazol-4-yl)methoxy)-3-(3-(dimethylamino)acryloyl)-2H-chromen-2-one], the IC50 on BuChE [1] is 34.41 ± 0.23 µM; on AChE [2], > 100 µM.

Take `Cc1ccccc1Cn1cc(COc2ccc3cc(C(=O)/C=C/N(C)C)c(=O)oc3c2)nn1` [Compound 10b, (E)-3-(3-(Dimethylamino)acryloyl)-7-((1-(2-methylbenzyl)-1H-1,2,3-triazol-4-yl)methoxy)-2H-chromen-2-one]: the values for the IC50 at BuChE [1] and on AChE [2] were 35.73 ± 0.21 µM and > 100 µM, respectively.

As to `Cc1ccc(Cn2cc(COc3ccc4cc(C(=O)/C=C/N(C)C)c(=O)oc4c3)nn2)cc1` [Compound 10c, (E)-3-(3-(Dimethylamino)acryloyl)-7-((1-(4-methylbenzyl)-1H-1,2,3-triazol-4-yl)methoxy)-2H-chromen-2-one], the IC50 at BuChE [1] and at AChE [2] was > 100 µM in each case.

Regarding `COc1cccc(Cn2cc(COc3ccc4cc(C(=O)/C=C/N(C)C)c(=O)oc4c3)nn2)c1` [Compound 10d, (E)-3-(3-(Dimethylamino)acryloyl)-7-((1-(3-methoxybenzyl)-1H-1,2,3-triazol-4-yl)methoxy)-2H-chromen-2-one], the values for the IC50 at BuChE [1] and on AChE [2] were 23.44 ± 0.07 µM and > 100 µM, respectively.

With `CN(C)/C=C/C(=O)c1cc2ccc(OCc3cn(Cc4ccccc4F)nn3)cc2oc1=O` [Compound 10e, (E)-3-(3-(Dimethylamino)acryloyl)-7-((1-(2-fluorobenzyl)-1H-1,2,3-triazol-4-yl)methoxy)-2H-chromen-2-one], the IC50 on BuChE [1] and at AChE [2] was > 100 µM throughout.

As for `CN(C)/C=C/C(=O)c1cc2ccc(OCc3cn(Cc4cccc(F)c4)nn3)cc2oc1=O` [Compound 10f, (E)-3-(3-(Dimethylamino)acryloyl)-7-((1-(3-fluorobenzyl)-1H-1,2,3-triazol-4-yl)methoxy)-2H-chromen-2-one], the IC50 on BuChE [1] is 59.58 ± 0.05 µM; on AChE [2] it was > 100 µM.

Regarding `CN(C)/C=C/C(=O)c1cc2ccc(OCc3cn(Cc4ccc(F)cc4)nn3)cc2oc1=O` [Compound 10g, (E)-3-(3-(Dimethylamino)acryloyl)-7-((1-(4-fluorobenzyl)-1H-1,2,3-triazol-4-yl)methoxy)-2H-chromen-2-one], the half-maximal inhibitory concentration (IC50) at BuChE [1] and at AChE [2] was > 100 µM each time.

Regarding `CN(C)/C=C/C(=O)c1cc2ccc(OCc3cn(Cc4ccccc4Cl)nn3)cc2oc1=O` [Compound 10i, (E)-7-((1-(2-Chlorobenzyl)-1H-1,2,3-triazol-4-yl)methoxy)-3-(3-(dimethylamino)acryloyl)-2H-chromen-2-one], the IC50 at BuChE [1] and on AChE [2] was > 100 µM in each case.

Consider `CN(C)/C=C/C(=O)c1cc2ccc(OCc3cn(Cc4ccc(Cl)cc4)nn3)cc2oc1=O` [Compound 10j, (E)-7-((1-(4-Chlorobenzyl)-1H-1,2,3-triazol-4-yl)methoxy)-3-(3-(dimethylamino)acryloyl)-2H-chromen-2-one], for which the IC50 at BuChE [1] and at AChE [2] was > 100 µM throughout.

For the compound `CN(C)/C=C/C(=O)c1cc2ccc(OCc3cn(Cc4ccccc4Br)nn3)cc2oc1=O` [Compound 10k, (E)-7-((1-(2-Bromobenzyl)-1H-1,2,3-triazol-4-yl)methoxy)-3-(3-(dimethylamino)acryloyl)-2H-chromen-2-one], the IC50 at BuChE [1] and at AChE [2] was > 100 µM in each case.

For the compound `CN(C)/C=C/C(=O)c1cc2ccc(OCc3cn(Cc4cccc(Br)c4)nn3)cc2oc1=O` [Compound 10l, (E)-7-((1-(3-Bromobenzyl)-1H-1,2,3-triazol-4-yl)methoxy)-3-(3-(dimethylamino)acryloyl)-2H-chromen-2-one], the results for the IC50 at BuChE [1] and on AChE [2] were 65.96 ± 0.004 µM and > 100 µM, respectively.

With `CN(C)/C=C/C(=O)c1cc2ccc(OCc3cn(Cc4ccc(Br)cc4)nn3)cc2oc1=O` [Compound 10m, (E)-7-((1-(4-Bromobenzyl)-1H-1,2,3-triazol-4-yl)methoxy)-3-(3-(dimethylamino)acryloyl)-2H-chromen-2-one], the IC50 at BuChE [1] and at AChE [2] was > 100 µM throughout.

Consider `Nc1c2c(nc3ccccc13)CCCC2` [Tacrine, reference compound], for which, in test [3], the inhibition at 100 µM came to 6.7 ± 0.9%. Further, the inhibition at 10 µM on Aβ1-42 is 7.6 ± 1.4%.

For the compound `O=C(NCc1cc[n+](Cc2cccc(F)c2)cc1)c1cc2ccccc2oc1=O` [compound A], the 50% inhibitory concentration (IC50) on BuChE [4] was 12.2 µM.

Consider `COc1ccc(Cn2cc(COc3ccc4ccc(=O)oc4c3)nn2)cc1` [compound B], for which the IC50 on AChE [5] is 3.4 µM; on BuChE [4], 1.1 µM.

As for `Clc1ccc(Cn2cc(CSc3nnc(-c4ccccc4)c(-c4ccccc4)n3)nn2)cc1` [compound C], the IC50 on BuChE [4] is 6.41 µM.

With `CN(C)CCC(=O)c1ccc(-c2ccc(C(=O)CCN(C)C)cc2)cc1` [compound D], the values for the IC50 on AChE [5] and on BuChE [4] were 19.9 µM and 0.32 µM, respectively.

`Cc1cc(=O)oc2cc(OCCCCSC(=S)N3CCCCC3)ccc12` [compound E]: the Aß aggregation inhibition in the test with Aβ [6] is given as 40.19%.

Turning to `COc1ccc(-c2cc3ccc(OCCCn4cc(CNC(=O)CCCCC5CCSS5)nn4)cc3oc2=O)cc1OC` (centres unmarked) [compound F], the “Aß self aggregation inhibition” value in the test with Aβ [7] was 51.2%.

In the case of `N=c1oc2ccccc2cc1C(=O)Nc1cc(Br)ccc1NCc1cn(CCC2C(=O)c3ccccc3C2=O)nn1` [compound G], the 50% inhibitory concentration (IC50) in the test on neuronal cell line was 7.9 µM.

The values are drawn from publication PMC7592376, “Design and synthesis of multi-target directed 1,2,3-triazole-dimethylaminoacryloyl-chromenone derivatives with potential use in Alzheimer's disease” (BMC Chemistry, 2020).
